Columns and labels:
Type in all cases: cell-based
P2X7 [1] = target: T1, P2X7 (Homo sapiens (Human), UniProt Q99572); test: P2X7 antagonism in human PBMCs (LPS + Bz-ATP induced IL-1β release, ELISA); settings: LPS 30 ng/ml, Bz-ATP 0.5 mM; for PBMC 10 μM (% control): compound 10 μM; for PBMC 1 μM (% control): compound 1 μM;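 for all read-outs here: PBMCs from donor human blood, with a further 1.5 h incubation of the cells in the assay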
P2X7 [2] = target: T1, P2X7; test: Ca2+ flux (FLIPR) in 1321N1 cells expressing recombinant human P2X7 channel; settings: 250 μM BzATP;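 note: Calcium-4 dye-loaded cells exposed to compound for 30 min before agonist addition, fluorescence change read 180 s after agonist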
Protocol: Cells were seeded at a density of 25000 cells/well (96-well clear bottom black walled plates) in 100 μl volume/well. On the day of the experiment, cell plates were washed with assay buffer, containing (in mM): 130 NaCl, 2 KCl, 1 CaCl2, 1 MgCl2, 10 HEPES, 5 glucose; pH 7.40 and 300 mOs. After the wash, cells were loaded with the Calcium-4 dye (Molecular Device) and incubated in the dark for 60 minutes. Test compounds were prepared at 250× the test concentration in neat DMSO. Intermediate 96-well compound plates were prepared by transferring 1.2 μL of the compound into 300 μL of assay buffer. A further 3× dilution occurred when transferring 50 μL/well of the compound plate to 100 μL/well in the cell plate. Cells were incubated with test compounds and dye for 30 minutes. […] The fluorescence change was measured 180 seconds after adding the agonist.

rat P2X7 = rat P2X7 (Rattus norvegicus (Rat), UniProt Q64663); test: Ca2+ flux (FLIPR) in 1321N1 cells expressing recombinant rat P2X7 channel; settings: 250 μM BzATP;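 note: Calcium-4 dye fluorescence change read 180 s after agonist addition, following 30 min cell preincubation with test compound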
rat P2X7, sequence (Q64663 whole entry): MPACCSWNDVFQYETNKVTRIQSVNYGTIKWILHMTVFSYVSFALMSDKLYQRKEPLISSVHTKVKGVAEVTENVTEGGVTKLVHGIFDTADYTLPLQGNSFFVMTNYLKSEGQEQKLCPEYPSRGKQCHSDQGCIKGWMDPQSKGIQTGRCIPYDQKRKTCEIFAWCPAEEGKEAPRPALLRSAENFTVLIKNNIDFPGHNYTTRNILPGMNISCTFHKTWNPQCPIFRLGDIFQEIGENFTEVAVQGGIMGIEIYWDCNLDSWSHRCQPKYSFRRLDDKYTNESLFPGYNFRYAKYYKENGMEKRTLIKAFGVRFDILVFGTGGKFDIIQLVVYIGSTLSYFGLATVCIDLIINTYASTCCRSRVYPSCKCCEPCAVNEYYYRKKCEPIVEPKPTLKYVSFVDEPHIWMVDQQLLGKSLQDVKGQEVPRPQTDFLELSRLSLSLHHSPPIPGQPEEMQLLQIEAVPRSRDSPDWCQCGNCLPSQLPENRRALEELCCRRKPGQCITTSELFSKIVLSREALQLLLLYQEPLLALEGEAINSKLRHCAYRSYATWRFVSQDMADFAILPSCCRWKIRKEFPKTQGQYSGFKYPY

T1 sequence (Q99572 whole entry): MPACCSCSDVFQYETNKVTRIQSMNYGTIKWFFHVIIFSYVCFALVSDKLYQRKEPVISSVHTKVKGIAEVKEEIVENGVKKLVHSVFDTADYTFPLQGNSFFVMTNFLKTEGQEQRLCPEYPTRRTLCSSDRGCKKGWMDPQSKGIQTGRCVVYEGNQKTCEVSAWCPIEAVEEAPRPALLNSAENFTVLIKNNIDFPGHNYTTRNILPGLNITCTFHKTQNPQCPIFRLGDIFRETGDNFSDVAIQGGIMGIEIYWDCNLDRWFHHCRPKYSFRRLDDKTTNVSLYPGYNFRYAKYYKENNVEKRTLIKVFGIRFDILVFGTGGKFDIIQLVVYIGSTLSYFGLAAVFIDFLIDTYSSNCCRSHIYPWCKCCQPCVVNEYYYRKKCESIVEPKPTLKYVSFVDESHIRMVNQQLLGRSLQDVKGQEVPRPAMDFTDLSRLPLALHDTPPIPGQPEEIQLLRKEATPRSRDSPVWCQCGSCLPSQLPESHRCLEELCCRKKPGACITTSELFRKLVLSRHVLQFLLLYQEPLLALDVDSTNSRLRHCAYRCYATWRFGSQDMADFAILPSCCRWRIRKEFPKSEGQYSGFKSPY

Structure (SMILES)	PBMC 10 μM (% control) (P2X7 [1])	IC50 (P2X7 [2]) [nM]	IC50 (rat P2X7) [nM]	PBMC 1 μM (% control) (P2X7 [1])
C[C@@H]1c2nnn(-c3ccccn3)c2CCN1C(=O)c1ccc(F)c(Cl)c1Cl (single isomer, unassigned) [Example 141, (R*)-(2,3-Dichloro-4-fluorophenyl)(4-methyl-1-(pyridin-2-yl)-6,7-dihydro-1H-[1,2,3]triazolo[4,5-c]pyridin-5(4H)-yl)methanone]	40.5	9590		
O=C(c1cccc(C(F)(F)F)c1Cl)N1CCc2c(ncn2-c2ccccn2)C1CF (centres unmarked) [Example 32, (2-Chloro-3-(trifluoromethyl)phenyl)(4-(fluoromethyl)-1-(pyridin-2-yl)-6,7-dihydro-1H-imidazo[4,5-c]pyridin-5(4H)-yl)methanone]	1.9		65.5	
O=C(OCC1c2ncn(-c3ccccc3)c2CCN1C(=O)c1cccc(C(F)(F)F)c1Cl)c1cccc(C(F)(F)F)c1Cl (centres unmarked) [Example 36, (5-{[2-Chloro-3-(trifluoromethyl)phenyl]carbonyl}-1-phenyl-4,5,6,7-tetrahydro-1H-imidazo[4,5-c]pyridin-4-yl)methyl 2-chloro-3-(trifluoromethyl)benzoate]		3080		16.6
O=C(c1cccc(C(F)(F)F)c1Cl)N1CCc2c(nc(C(F)(F)F)n2-c2ccccc2)C1 [Example 38, (2-Chloro-3-(trifluoromethyl)phenyl)(1-phenyl-2-(trifluoromethyl)-6,7-dihydro-1H-imidazo[4,5-c]pyridin-5(4H)-yl)methanone]	−0.3	14.3		
CC1(C)c2ncn(-c3ccccc3)c2CCN1C(=O)c1cccc(C(F)(F)F)c1Cl [Example 53, 5-{[2-Chloro-3-(trifluoromethyl)phenyl]carbonyl}-4,4-dimethyl-1-phenyl-4,5,6,7-tetrahydro-1H-imidazo[4,5-c]pyridine]			4950	99.0
O=C(c1cccc(C(F)(F)F)c1Cl)N1CCc2c(nnn2-c2ccccn2)C1 [Example 63, 5-{[2-Chloro-3-(trifluoromethyl)phenyl]carbonyl}-1-pyridin-2-yl-4,5,6,7-tetrahydro-1H-[1,2,3]triazolo[4,5-c]pyridine]			1090	12.6
O=C(c1cccc(C(F)(F)F)c1Cl)N1C=Cc2c(nnn2-c2cnccn2)C1c1ccccc1 (centres unmarked) [Example 76, 5-{[2-Chloro-3-(trifluoromethyl)phenyl]carbonyl}-4-phenyl-1-pyrazin-2-yl-4,5-dihydro-1H-[1,2,3]triazolo[4,5-c]pyridine]			32.4	1.6
CC1c2nnn(-c3ncccc3F)c2CCN1C(=O)c1cccc(C(F)(F)F)c1Cl (centres unmarked) [Example 84, 5-{[2-Chloro-3-(trifluoromethyl)phenyl]carbonyl}-1-(3-fluoropyridin-2-yl)-4-methyl-4,5,6,7-tetrahydro-1H-[1,2,3]triazolo[4,5-c]pyridine]	8.5		187	
Cn1nc(-c2ccc(F)cc2)c2c1CN(C(=O)c1cccc(Cl)c1Cl)CC2 [Example 109, 6-[(2,3-Dichlorophenyl)carbonyl]-3-(4-fluorophenyl)-1-methyl-4,5,6,7-tetrahydro-1H-pyrazolo[3,4-c]pyridine]		251		94.1
O=C(c1cccc(Cl)c1Cl)N1CCc2c(-c3ccncc3)n[nH]c2C1 [Example 115, 6-[(2,3-Dichlorophenyl)carbonyl]-3-pyridin-4-yl-4,5,6,7-tetrahydro-2H-pyrazolo[3,4-c]pyridine]	−3.3		> 10000	
CC1Cc2c(nnn2-c2ccccn2)CN1C(=O)c1cccc(Cl)c1Cl (centres unmarked) [Example 120, 5-[(2,3-Dichlorophenyl)carbonyl]-6-methyl-1-pyridin-2-yl-4,5,6,7-tetrahydro-1H-[1,2,3]triazolo[4,5-c]pyridine]	−3.8		55.6	
COc1ccnc(-n2nnc3c2CCN(C(=O)c2cccc(C(F)(F)F)c2Cl)C3)c1 [Example 136, (2-Chloro-3-(trifluoromethyl)phenyl)(1-(4-methoxypyridin-2-yl)-6,7-dihydro-1H-[1,2,3]triazolo[4,5-c]pyridin-5(4H)-yl)methanone]	5.3		133	
COc1ccc(-n2nnc3c2CCN(C(=O)c2cccc(C(F)(F)F)c2Cl)C3C)nc1 (centres unmarked) [Example 145, (2-Chloro-3-(trifluoromethyl)phenyl)(1-(5-methoxypyridin-2-yl)-4-methyl-6,7-dihydro-1H-[1,2,3]triazolo[4,5-c]pyridin-5(4H)-yl)methanone]	15.2	2310		
CC1Cc2c(nnn2-c2cc(F)ccn2)CN1C(=O)c1cccc(Cl)c1Cl (centres unmarked) [Example 173, 5-[(2,3-Dichlorophenyl)carbonyl]-1-(4-fluoropyridin-2-yl)-6-methyl-4,5,6,7-tetrahydro-1H-[1,2,3]triazolo[4,5-c]pyridine]	8.8		10.2	
Cc1cc(C)nc(-n2nnc3c2CCN(C(=O)c2cccc(Cl)c2Cl)C3C)n1 (centres unmarked) [Example 179, (2,3-dichlorophenyl)(1-(4,6-dimethylpyrimidin-2-yl)-4-methyl-6,7-dihydro-1H-[1,2,3]triazolo[4,5-c]pyridin-5(4H)-yl)methanone]	−4.3		> 10000	
Cc1nc(-n2nnc3c2CCN(C(=O)c2cccc(C(F)(F)F)c2Cl)C3C)ncc1F (centres unmarked) [Example 230, (2-chloro-3-(trifluoromethyl)phenyl)(1-(5-fluoro-4-methylpyrimidin-2-yl)-4-methyl-6,7-dihydro-1H-[1,2,3]triazolo[4,5-c]pyridin-5(4H)-yl)methanone]	2.9		89.5	
CC1CN(C(=O)c2cccc(C(F)(F)F)c2Cl)C(C)c2nnn(-c3ccccc3)c21 (centres unmarked) [Example 241, (2-Chloro-3-(trifluoromethyl)phenyl)(4,7-dimethyl-1-phenyl-6,7-dihydro-1H-[1,2,3]triazolo[4,5-c]pyridin-5(4H)-yl)methanone]	6.5		> 10000	
CC1CN(C(=O)c2cccc(Cl)c2Cl)Cc2nnn(-c3ccccc3)c21 (centres unmarked) [Example 244, (2,3-Dichlorophenyl)(7-methyl-1-phenyl-6,7-dihydro-1H-[1,2,3]triazolo[4,5-c]pyridin-5(4H)-yl)methanone]	−2.3	1140		
CC1CN(C(=O)c2cccc(Cl)c2Cl)Cc2nnn(-c3ccc(F)cc3)c21 (centres unmarked) [Example 247, (2,3-Dichlorophenyl)(1-(4-fluorophenyl)-7-methyl-6,7-dihydro-1H-[1,2,3]triazolo[4,5-c]pyridin-5(4H)-yl)methanone]	−0.8	2330		
Cc1cc(C)nc(-n2nnc3c2CCN(C(=O)c2cccc(C(F)(F)F)c2Cl)C3C)n1 (centres unmarked) [Example 253, (2-Chloro-3-(trifluoromethyl)phenyl)(1-(4,6-dimethylpyrimidin-2-yl)-4-methyl-6,7-dihydro-1H-[1,2,3]triazolo[4,5-c]pyridin-5(4H)-yl)methanone]	−2.6		12700	
CCc1cccnc1-n1nnc2c1CCN(C(=O)c1cccc(C(F)(F)F)c1Cl)C2C (centres unmarked) [Example 254, (2-Chloro-3-(trifluoromethyl)phenyl)(1-(3-ethylpyridin-2-yl)-4-methyl-6,7-dihydro-1H-[1,2,3]triazolo[4,5-c]pyridin-5(4H)-yl)methanone]	0.9		4260	
CCOc1cccnc1-n1nnc2c1CCN(C(=O)c1cccc(C(F)(F)F)c1Cl)C2C (centres unmarked) [Example 258, (2-Chloro-3-(trifluoromethyl)phenyl)(1-(3-ethoxypyridin-2-yl)-4-methyl-6,7-dihydro-1H-[1,2,3]triazolo[4,5-c]pyridin-5(4H)-yl)methanone]	−3.2		4840	
CC1c2ncn(-c3ccc(F)cn3)c2CCN1C(=O)c1cccc(C(F)(F)F)c1F (centres unmarked) [Example 262, (2-fluoro-3-(trifluoromethyl)phenyl)(1-(5-fluoropyridin-2-yl)-4-methyl-6,7-dihydro-1H-imidazo[4,5-c]pyridin-5(4H)-yl)methanone]	−3.6		1550	
Cc1ccnc(-n2nnc3c2CCN(C(=O)c2cccc(C(F)(F)F)c2F)C3C)n1 (centres unmarked) [Example 269, (2-fluoro-3-(trifluoromethyl)phenyl)(4-methyl-1-(4-methylpyrimidin-2-yl)-6,7-dihydro-1H-[1,2,3]triazolo[4,5-c]pyridin-5(4H)-yl)methanone]	16.3		20.6	
O=C(c1ccc(Cl)cc1Cl)N1CCc2c(nnn2-c2cnccn2)C1 [Example 277, (2,4-dichlorophenyl)(1-(pyrazin-2-yl)-6,7-dihydro-1H-[1,2,3]triazolo[4,5-c]pyridin-5(4H)-yl)methanone]	−3.7		1920	
CCCOc1cccnc1-n1nnc2c1CCN(C(=O)c1cccc(C(F)(F)F)c1Cl)C2C (centres unmarked) [Example 293, (2-chloro-3-(trifluoromethyl)phenyl)(4-methyl-1-(3-propoxypyridin-2-yl)-6,7-dihydro-1H-[1,2,3]triazolo[4,5-c]pyridin-5(4H)-yl)methanone]	−11.3		428	
Cc1ccc(-n2nnc3c2CCN(C(=O)c2cccc(C(F)(F)F)c2Cl)C3C)nc1 (centres unmarked) [Example 301, (2-chloro-3-(trifluoromethyl)phenyl)(4-methyl-1-(5-methylpyridin-2-yl)-6,7-dihydro-1H-[1,2,3]triazolo[4,5-c]pyridin-5(4H)-yl)methanone]	−2.2		163	
CC1c2ncn(-c3ccc(F)cn3)c2C=CN1C(=O)c1cccc(C(F)(F)F)c1Cl (centres unmarked) [Example 321, (2-chloro-3-(trifluoromethyl)phenyl)(1-(5-fluoropyridin-2-yl)-4-methyl-1H-imidazo[4,5-c]pyridin-5(4H)-yl)methanone]	14.1		589	

Source: US9464084B2, “P2X7 modulators” (Janssen Pharmaceutica NV, priority 2013, dated 2016)
